# pIC50: −log10 of the molar value. Where a name gives a salt, the structure may show the parent alone.
# Target: T1, NHE-1 (Homo sapiens, UniProt P19634)
# T1 construct: NHE-1 isoform which is predominantly present in human platelets; endogenous in cells; host or cells: human platelets (platelet rich plasma from blood of healthy volunteers)
# Test: Primary screening assay in human platelets (acidified human platelet swelling assay)
# Assay type: cell-based
# Conditions: concentration required to inhibit 50% of NHE-1 activity in isolated human platelets; mean of three readings, PRP from three donors
# Method: Experiments on inhibition of NHE in human platelets are based on those published in (Cardiovasc. Res. 29: 260-268, (1995), J. Med. Chem. 41, 3736-3747, (1998)) Blood (150 mL) collected in a siliconized glass bottle from healthy volunteers was treated with aqueous acid citrate dextrose (ACD) solution (25 mL) [composition: citric acid (38 mM/L), glucose (136 mM/L) and trisodium citrate (75 mM/L)] and immediately centrifuged at 200 g for 20 min. The platelet rich plasma (PRP) was separated and a platelet count carried out using a Beckman Coulter A^c T® cell counter. The cell count was adjusted to 3×10^8 platelets/mL using platelet free plasma.
# Activation of Na^+/H^+ exchanger by intracellular acidification: 150 μL of PRP was added to 750 μL of propionate buffer [composition: KCl (5 mM/L), CaCl2 (1 mM/L), MgCl2 (1 mM/L), glucose (10 mM/L), HEPES (20 mM/L), sodium propionate (140 mM/L)] of pH 6.6, in a cuvette. Optical density was recorded at 630 nm using a Shimadzu spectrophotometer (UV 1601). The micromolar concentrations of a few representative compounds required to inhibit 50% of NHE-1 activity (IC50), in isolated human platelets (acidified human platelet swelling assay) is shown in Table 2. IC50 values are the mean of three experimental readings using PRP isolated from the blood of three different donors.
# T1 sequence (P19634 whole entry, canonical isoform): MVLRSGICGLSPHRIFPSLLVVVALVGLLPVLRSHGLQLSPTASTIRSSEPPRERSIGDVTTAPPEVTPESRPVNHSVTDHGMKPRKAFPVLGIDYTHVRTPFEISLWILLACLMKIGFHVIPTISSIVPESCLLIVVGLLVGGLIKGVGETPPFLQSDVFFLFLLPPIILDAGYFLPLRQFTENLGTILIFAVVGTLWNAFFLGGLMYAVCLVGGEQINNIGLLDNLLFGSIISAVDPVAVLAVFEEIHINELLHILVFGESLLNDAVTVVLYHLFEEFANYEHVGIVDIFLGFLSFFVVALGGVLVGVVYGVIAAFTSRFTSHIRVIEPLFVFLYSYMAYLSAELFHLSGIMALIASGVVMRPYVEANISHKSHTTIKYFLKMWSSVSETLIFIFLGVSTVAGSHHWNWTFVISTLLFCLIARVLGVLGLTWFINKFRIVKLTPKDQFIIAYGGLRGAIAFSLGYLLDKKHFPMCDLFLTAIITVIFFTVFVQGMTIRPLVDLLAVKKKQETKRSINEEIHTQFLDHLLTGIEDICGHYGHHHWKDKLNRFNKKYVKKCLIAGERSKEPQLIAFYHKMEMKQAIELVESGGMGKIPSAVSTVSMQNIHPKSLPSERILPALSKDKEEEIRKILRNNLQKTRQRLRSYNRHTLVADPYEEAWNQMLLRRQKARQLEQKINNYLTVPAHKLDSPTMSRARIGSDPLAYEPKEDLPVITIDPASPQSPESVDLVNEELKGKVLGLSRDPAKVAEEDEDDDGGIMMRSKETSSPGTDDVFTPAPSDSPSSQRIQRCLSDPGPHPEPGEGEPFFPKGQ
row,Structure (SMILES),pIC50
1,"Cc1cc(C(=O)N=C(N)N)cc2c1Oc1c(Cl)cc(N3CCN(C4CC4)CC3=O)cc1CS2(=O)=O [Example 58, N-[4-Chloro-2-(4-cyclopropyl-2-oxo-piperazin-1-yl)-6-methyl-10,10-dioxo-10,11-dihydro-5-oxa-10lambda*6*-thia-dibenzo[a,d]cycloheptene-8-carbonyl]-guanidine dimesylate]",7.06
2,"Cc1cc(C(=O)N=C(N)N)cc2c1N(C)c1c(Cl)cccc1C(C)S2(=O)=O (stereo not drawn) [Example 194, N-(4-Chloro-5,6,11-trimethyl-10,10-dioxo-10,11-dihydro-5H-10lambda*6*-thia-5-aza-dibenzo[a.d]cycloheptene-8-carbonyl)-guanidine, methane sulfonic acid salt]",6.70
3,"Cc1cc(C(=O)N=C(N)N)cc2c1Oc1c(Cl)cc(N3CCN(Cc4ccccc4)CC3)cc1CS2(=O)=O [Example 118, N-[2-(4-Benzyl-piperazin-1-yl)-4-chloro-6-methyl-10,10-dioxo-10,11-dihydro-5-oxa-10lambda*6*-thia-dibenzo[a,d]cycloheptene-8-carbonyl]-guanidine dimesylate]",7.00
4,"Cc1cc2c(cc1C(=O)N=C(N)N)S(=O)(=O)Cc1ccccc1O2 [Example 27, N-(7-Methyl-10,10-dioxo-10,11-dihydro-5-oxa-10lambda*6*-thia-dibenzo[a,d]cycloheptene-8-carbonyl)-guanidine, methane sulfonic acid salt]",7.00
5,"Cc1cc2c(cc1C(=O)N=C(N)N)S(=O)(=O)Cc1ccccc1N2 [Example 183, N-(7-Methyl-10,10-dioxo-10,11-dihydro-5H-10lambda*6*-thia-5-aza-dibenzo[a.d]cycloheptene-8-carbonyl)-guanidine, methane sulfonic acid salt]",7.00
6,"Cc1cc(C(=O)N=C(N)N)cc2c1Oc1c(cccc1C(C)C)CS2(=O)=O [Example 31, N-(4-Isopropyl-6-methyl-10,10-dioxo-10,11-dihydro-5-oxa-10lambda*6*-thia-dibenzo[a,d]cycloheptene-8-carbonyl)-guanidine, methane sulfonic acid salt]",6.70

# These reach a higher pIC50. Values come first.
row,pIC50,Structure (SMILES)
1,7.10,"Cc1cc(C(=O)N=C(N)N)cc2c1Oc1c(Cl)cc(S(=O)(=O)NCc3cccnc3)cc1CS2(=O)=O [Example 52, 4-Chloro-8-guanidinocarbonyl-6-methyl-10,10-dioxo-10,11-dihydro-5-oxa-10lambda*6*-thia-dibenzo[a,d]cycloheptene-2-sulfonic acid (pyridin-3-ylmethyl)-amide dimesylate]"
2,7.15,"NC(N)=NC(=O)c1cc(Cl)c2c(c1)S(=O)(=O)Cc1cccc(Cl)c1O2 [Example 45, 4,6-Dichloro-10,10-dioxo-10,11-dihydro-5-oxa-10lambda*6*-thia-dibenzo[a,d]cycloheptene-8-carbonylguanidine, methane sulfonic acid salt]"
3,7.40,"Cc1cc(N)cc2c1Oc1c(Cl)cc(C(=O)N=C(N)N)cc1S(=O)(=O)C2 [Example 48, N-(2-Amino-6-chloro-4-methyl-10,10-dioxo-10,11-dihydro-5-oxa-10lambda*6*-thia-dibenzo[a,d]cycloheptene-8-carbonyl)-guanidine, methane sulfonic acid salt]"
4,7.49,"CCN(CCN1CCCC1)c1cc(Cl)c2c(c1)CS(=O)(=O)c1cc(C(=O)N=C(N)N)cc(C)c1O2 [Example 73, N-{4-Chloro-2-[ethyl-(2-pyrrolidin-1-yl-ethyl)-amino]-6-methyl-10,10-dioxo-10,11-dihydro-5-oxa-10lambda*6*-thia-dibenzo[a,d]cycloheptene-8-carbonyl}-guanidine dimesylate]"
5,7.52,"Cc1cc(C(=O)N=C(N)N)cc2c1Oc1c(Cl)cc(CN)cc1CS2(=O)=O [Example 198, N-(2-Aminomethyl-4-chloro-6-methyl-10,10-dioxo-10,11-dihydro-5-oxa-10lambda*6*-thia-dibenzo[a.d]cycloheptene-8-carbonyl)-guanidine trimesylate]"
6,7.70,"Cc1cc(C(=O)N=C(N)N)cc2c1Oc1c(Cl)cc(N)cc1CS2(=O)=O [Example 35, N-(2-Amino-4-chloro-6-methyl-10,10-dioxo-10,11-dihydro-5-oxa-10lambda*6*-thia-dibenzo[a,d]cycloheptene-8-carbonyl)-guanidine, methane sulfonic acid salt]"

# Source: US8183234B2, “Tricyclic guanidine derivatives as sodium-proton exchange inhibitors” (Piramal Life Sciences Limited, priority 2004, dated 2012)
